In the supplement of paper PMC12463676, “Small-molecule dissolution of stress granules by redox modulation benefits ALS models” (Nature Chemical Biology, 2025):

Experiments:
lipoamide = compound: NC(=O)CCCCC1CCSS1 [lipoamide]; experiment: thermal stability z-score vs DMSO; higher = more thermally stabilized by treatment; conditions: HeLa, lipoamide concentration 100 µM
Description: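 Cellular thermal proteome profiling in HeLa cells. Cells were treated with 100 µM lipoamide for 1 h, with or without 1 mM arsenate for a further 1 h, then heated to ten temperatures (37-66.3 °C), and soluble protein was quantified by TMT mass spectrometry relative to 0.1% DMSO controls. The thermal stability score (sum of log2 fold changes minus the abundance score) was transformed to a z-score; mean of n = 3 experiments.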

potassium arsenate = compound: O=[As]([O-])(O)O.[K+] [potassium arsenate]; experiment: as above; conditions: HeLa; arsenate concentration 1 mM
Description: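 Cellular thermal proteome profiling in HeLa cells treated with 1 mM arsenate for 1 h (DMSO pretreatment), heated to ten temperatures (37-66.3 °C). Soluble protein was quantified by TMT mass spectrometry relative to DMSO controls; the thermal stability score was transformed to a z-score; mean of n = 3 experiments.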

[1] = arsenate co-treatment: 1 mM arsenate 1 h
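Further: each temperature applied for 3 min, abundance score taken as mean log2 fold change at the two lowest temperatures, z-score obtained by mean subtraction and division by SD.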

Sequence of UniProt Q86X76 (Q86X76 whole entry): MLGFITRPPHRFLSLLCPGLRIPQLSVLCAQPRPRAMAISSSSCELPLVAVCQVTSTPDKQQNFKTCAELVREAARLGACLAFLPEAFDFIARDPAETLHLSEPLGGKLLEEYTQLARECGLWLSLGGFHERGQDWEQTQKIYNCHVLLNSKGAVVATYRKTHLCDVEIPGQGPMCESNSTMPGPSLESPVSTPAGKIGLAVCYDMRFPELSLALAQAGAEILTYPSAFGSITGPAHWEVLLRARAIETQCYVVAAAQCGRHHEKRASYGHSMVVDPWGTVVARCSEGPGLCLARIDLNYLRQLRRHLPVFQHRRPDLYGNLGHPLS
Sequence of UniProt Q9BVM2 (Q9BVM2 whole entry): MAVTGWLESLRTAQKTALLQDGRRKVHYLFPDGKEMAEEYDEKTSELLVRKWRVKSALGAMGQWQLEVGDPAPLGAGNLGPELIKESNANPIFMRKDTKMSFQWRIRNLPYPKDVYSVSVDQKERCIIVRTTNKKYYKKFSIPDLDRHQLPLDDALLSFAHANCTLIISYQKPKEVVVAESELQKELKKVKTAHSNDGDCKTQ
Sequence of UniProt Q9UI09 (Q9UI09 whole entry): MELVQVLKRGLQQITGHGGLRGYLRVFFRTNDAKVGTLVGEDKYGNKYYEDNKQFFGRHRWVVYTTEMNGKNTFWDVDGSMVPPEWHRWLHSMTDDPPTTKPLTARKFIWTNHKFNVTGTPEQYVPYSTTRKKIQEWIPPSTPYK
Sequence of UniProt P40926 (P40926 whole entry): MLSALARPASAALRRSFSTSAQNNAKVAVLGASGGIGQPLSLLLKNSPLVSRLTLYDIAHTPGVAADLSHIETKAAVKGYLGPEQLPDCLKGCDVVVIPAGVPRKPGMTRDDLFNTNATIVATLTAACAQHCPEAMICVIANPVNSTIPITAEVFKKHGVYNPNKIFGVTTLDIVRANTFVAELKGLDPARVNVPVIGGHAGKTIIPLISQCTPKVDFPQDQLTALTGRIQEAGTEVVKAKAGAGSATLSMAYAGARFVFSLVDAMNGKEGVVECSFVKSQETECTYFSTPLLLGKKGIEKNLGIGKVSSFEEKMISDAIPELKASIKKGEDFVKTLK
Sequence of UniProt Q9BRG2 (Q9BRG2 whole entry, looked up): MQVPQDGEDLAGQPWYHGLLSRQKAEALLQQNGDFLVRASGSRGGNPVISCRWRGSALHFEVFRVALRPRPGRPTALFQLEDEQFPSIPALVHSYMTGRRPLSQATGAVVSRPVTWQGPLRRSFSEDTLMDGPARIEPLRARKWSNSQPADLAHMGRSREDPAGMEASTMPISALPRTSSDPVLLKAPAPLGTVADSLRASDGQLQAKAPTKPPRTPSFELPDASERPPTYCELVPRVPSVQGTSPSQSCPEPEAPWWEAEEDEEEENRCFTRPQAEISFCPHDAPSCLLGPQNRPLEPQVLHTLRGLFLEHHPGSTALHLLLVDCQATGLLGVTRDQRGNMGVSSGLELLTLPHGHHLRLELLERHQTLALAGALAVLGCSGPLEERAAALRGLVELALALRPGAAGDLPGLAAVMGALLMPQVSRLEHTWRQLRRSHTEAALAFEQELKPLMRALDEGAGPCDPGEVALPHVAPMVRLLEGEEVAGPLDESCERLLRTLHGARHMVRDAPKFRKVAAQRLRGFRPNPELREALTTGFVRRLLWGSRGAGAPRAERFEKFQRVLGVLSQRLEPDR
Sequence of UniProt O75718 (O75718 whole entry): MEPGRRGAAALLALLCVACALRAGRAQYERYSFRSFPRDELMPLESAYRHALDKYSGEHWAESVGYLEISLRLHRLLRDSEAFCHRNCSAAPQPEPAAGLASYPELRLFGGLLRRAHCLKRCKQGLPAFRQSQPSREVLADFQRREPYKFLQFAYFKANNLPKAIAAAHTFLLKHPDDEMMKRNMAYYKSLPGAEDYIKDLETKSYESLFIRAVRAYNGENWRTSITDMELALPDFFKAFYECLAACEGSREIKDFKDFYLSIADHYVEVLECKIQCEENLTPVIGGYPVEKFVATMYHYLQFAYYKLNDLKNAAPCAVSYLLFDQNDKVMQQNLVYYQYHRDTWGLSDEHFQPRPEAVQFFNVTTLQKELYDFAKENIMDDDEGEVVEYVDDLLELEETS
Sequence of UniProt Q9HBH9 (Q9HBH9 whole entry, looked up): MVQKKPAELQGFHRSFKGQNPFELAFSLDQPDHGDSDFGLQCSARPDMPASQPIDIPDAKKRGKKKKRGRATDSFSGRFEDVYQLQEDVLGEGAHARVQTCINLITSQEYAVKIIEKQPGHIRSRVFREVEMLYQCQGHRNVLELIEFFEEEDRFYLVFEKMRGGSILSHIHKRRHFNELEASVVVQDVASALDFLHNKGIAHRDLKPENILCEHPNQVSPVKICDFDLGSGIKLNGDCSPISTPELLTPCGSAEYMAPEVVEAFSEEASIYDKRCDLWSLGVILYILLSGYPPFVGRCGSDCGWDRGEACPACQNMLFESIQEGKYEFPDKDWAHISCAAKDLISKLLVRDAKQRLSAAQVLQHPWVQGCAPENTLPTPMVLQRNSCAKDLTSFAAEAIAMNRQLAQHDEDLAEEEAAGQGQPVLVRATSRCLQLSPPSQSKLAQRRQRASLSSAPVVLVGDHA
Sequence of UniProt P20810 (P20810 whole entry): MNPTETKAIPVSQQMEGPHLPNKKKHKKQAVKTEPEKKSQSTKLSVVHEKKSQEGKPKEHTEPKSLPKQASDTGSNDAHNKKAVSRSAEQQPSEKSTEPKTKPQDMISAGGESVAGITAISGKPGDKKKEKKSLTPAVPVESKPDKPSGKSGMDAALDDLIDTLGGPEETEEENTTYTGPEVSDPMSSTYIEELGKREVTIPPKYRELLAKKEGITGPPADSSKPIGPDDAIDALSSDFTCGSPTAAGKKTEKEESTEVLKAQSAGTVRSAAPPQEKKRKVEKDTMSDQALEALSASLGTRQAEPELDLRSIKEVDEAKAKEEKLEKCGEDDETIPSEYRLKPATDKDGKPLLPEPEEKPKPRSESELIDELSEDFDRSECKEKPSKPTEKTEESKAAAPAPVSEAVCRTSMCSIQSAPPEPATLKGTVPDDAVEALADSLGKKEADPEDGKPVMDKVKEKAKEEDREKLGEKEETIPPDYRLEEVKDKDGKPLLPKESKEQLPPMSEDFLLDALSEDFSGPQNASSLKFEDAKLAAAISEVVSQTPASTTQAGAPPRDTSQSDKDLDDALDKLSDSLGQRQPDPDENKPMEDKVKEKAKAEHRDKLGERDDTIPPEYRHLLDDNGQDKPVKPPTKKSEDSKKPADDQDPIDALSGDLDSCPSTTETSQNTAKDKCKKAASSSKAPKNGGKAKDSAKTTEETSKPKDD
Sequence of UniProt Q9Y2S6 (Q9Y2S6 whole entry): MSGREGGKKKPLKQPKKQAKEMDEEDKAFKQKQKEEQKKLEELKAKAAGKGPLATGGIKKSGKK
Sequence of UniProt Q13042 (Q13042 whole entry): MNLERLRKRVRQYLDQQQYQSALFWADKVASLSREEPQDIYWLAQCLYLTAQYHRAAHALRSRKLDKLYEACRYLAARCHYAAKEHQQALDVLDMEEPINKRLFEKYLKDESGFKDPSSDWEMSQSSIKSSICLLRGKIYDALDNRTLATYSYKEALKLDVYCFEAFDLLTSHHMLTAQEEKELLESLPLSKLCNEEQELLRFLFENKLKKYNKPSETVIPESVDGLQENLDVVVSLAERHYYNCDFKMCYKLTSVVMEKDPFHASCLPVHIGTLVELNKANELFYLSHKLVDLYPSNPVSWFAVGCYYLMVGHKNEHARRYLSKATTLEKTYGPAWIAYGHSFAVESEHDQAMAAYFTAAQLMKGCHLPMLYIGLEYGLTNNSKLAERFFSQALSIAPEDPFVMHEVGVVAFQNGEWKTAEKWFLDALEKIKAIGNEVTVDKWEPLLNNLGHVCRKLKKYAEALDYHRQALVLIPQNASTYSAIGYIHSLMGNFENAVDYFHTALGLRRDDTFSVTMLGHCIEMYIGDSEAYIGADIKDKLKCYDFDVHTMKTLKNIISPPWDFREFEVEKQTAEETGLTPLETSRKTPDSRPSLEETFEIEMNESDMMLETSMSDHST
Sequence of UniProt P50995 (P50995 whole entry): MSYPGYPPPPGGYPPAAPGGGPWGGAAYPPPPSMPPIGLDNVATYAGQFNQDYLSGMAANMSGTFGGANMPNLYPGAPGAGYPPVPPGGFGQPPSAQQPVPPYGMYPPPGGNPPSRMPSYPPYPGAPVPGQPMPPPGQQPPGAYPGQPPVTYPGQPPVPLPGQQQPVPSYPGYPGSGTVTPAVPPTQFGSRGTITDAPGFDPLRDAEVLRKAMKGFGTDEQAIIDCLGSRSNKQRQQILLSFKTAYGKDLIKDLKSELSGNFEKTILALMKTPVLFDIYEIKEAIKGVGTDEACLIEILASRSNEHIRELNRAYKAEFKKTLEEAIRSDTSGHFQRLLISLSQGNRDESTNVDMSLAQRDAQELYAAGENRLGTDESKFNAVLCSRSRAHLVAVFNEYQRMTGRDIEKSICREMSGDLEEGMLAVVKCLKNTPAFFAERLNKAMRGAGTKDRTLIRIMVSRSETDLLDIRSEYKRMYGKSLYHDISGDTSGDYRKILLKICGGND

Row | Target | thermal stability z-score (lipoamide; [1]) | thermal stability z-score (lipoamide; arsenate co-treatment: none) | thermal stability z-score (potassium arsenate)
1 | PPHLN1 (UniProt Q8NEY8) | 0.687 | 0.672 | -0.137
2 | ODC1 (UniProt P11926) | 0.0303 | 0.354 | 0.106
3 | MPG (UniProt P29372) | 0.128 | 0.378 | 0.572
4 | USP24 (UniProt Q9UPU5) | -0.197 | -0.413 | -0.117
5 | ADO (UniProt Q96SZ5) | 1.62 | 1.31 | -0.401
6 | IQGAP1 (UniProt P46940) | 0.776 | 0.818 | -1.08
7 | SUPT16H (UniProt Q9Y5B9) | 1.01 | 1.11 | 0.819
8 | SEMA3C (UniProt Q99985) | -0.0185 | -0.402 | -0.147
9 | RFC2 (UniProt P35250) | -0.0963 | -0.26 | 0.381
10 | LAS1L (UniProt Q9Y4W2) | -0.0675 | -0.132 | -0.116
11 | TMA7 (UniProt Q9Y2S6) | 0.356 | 0.314 | 0.111
12 | TCERG1 (UniProt O14776) | 0.7 | 0.361 | -0.0887
13 | PNKP (UniProt Q96T60) | -0.0218 | -0.0196 | -0.329
14 | NDUFAF1 (UniProt Q9Y375) | -0.593 | -0.335 | -0.0374
15 | TM7SF3 (UniProt Q9NS93) | -0.0176 | -0.523 | 0.533
16 | NDUFA12 (UniProt Q9UI09) | -0.0618 | 0.06 | 0.611
17 | ATP6V1C1 (UniProt P21283) | -0.136 | 0.0202 | 0.132
18 | ZMYM3 (UniProt Q14202) | 0.69 | 0.308 | -1.2

Row | Target | thermal stability z-score (lipoamide; [1]) | thermal stability z-score (lipoamide; arsenate co-treatment: none) | thermal stability z-score (potassium arsenate)
19 | CHAF1A (UniProt Q13111) | 0.0368 | 0.138 | -0.0415
20 | CDC16 (UniProt Q13042) | 0.159 | 0.0509 | -0.551
21 | GAL (UniProt P22466) | 0.135 | -0.122 | -0.0332
22 | MKNK2 (UniProt Q9HBH9) | -0.569 | 0.232 | 0.192
23 | ZC3H14 (UniProt Q6PJT7) | 0.686 | -0.0584 | -5.55
24 | DPCD (UniProt Q9BVM2) | -0.929 | -0.513 | 0.0166
25 | TMA16 (UniProt Q96EY4) | -0.345 | -0.0887 | -0.0752
26 | HNRNPK (UniProt P61978) | -0.316 | 0.559 | -1.69
27 | ANXA11 (UniProt P50995) | 3.8 | 3.23 | 1.77
28 | NIT1 (UniProt Q86X76) | 0.836 | 0.924 | 0.439
29 | NVL (UniProt O15381) | -0.0288 | -0.0652 | 0.0113
30 | CRTAP (UniProt O75718) | -3.99 | -3.27 | 0.92
31 | HNRNPAB (UniProt Q99729) | 0.89 | 0.554 | -0.447
32 | MDH2 (UniProt P40926) | 0.922 | 0.615 | -0.963
33 | GSPT2 (UniProt Q8IYD1) | -0.0489 | -0.153 | -0.621
34 | CAST (UniProt P20810) | 0.525 | 0.428 | 0.122
35 | SH2D3A (UniProt Q9BRG2) | 0.139 | -0.263 | 0.0147
